Here are results for five compounds from BindingDB's records for doi:10.1016/j.bmcl.2016.12.057 (University of Auckland, 2017).

Usually IC50 stands for the point on the concentration scale where inhibition reaches its midpoint.

Some results are limits rather than exact numbers.

The nature of the experiment: Inhibition of recombinant perforin (unknown origin) assessed as decrease in lysis of 51Cr-labelled human Jurkat cells by measuring 51Cr release preincubated for 30 mins followed by cell line addition measured after 4 hrs in presence of 0.1% BSA by gamma counting method.
Turning to `O=C1NCCc2cc(-c3ccc(-c4cncc(NS(=O)(=O)c5ccc(F)cc5F)c4)s3)ccc21`, the IC50 is over 20 µM. In the case of `O=C1NCCc2ccc(-c3ccc(-c4cncc(NS(=O)(=O)c5ccc(F)cc5F)c4)s3)cc21` it was over 20 µM; in that of `CC1c2cc(-c3ccc(-c4cncc(NS(=O)(=O)c5ccc(F)cc5F)c4)s3)ccc2C(=O)N1C` (stereo not given), over 20 µM; in that of `CN1Cc2cc(-c3nc(-c4cncc(NS(=O)(=O)c5ccc(F)cc5F)c4)cs3)ccc2C1=O`, over 20 µM. In the case of `CN1CCc2cc(-c3ccc(-c4cncc(NS(=O)(=O)c5ccc(F)cc5F)c4)s3)ccc2C1=O` it was over 20 µM.
